According to patent US10023615B2, “Efficient transport into white blood cells” (priority 2008, dated 2018):
Ends that are not written are not given here.

Legend:
db/db mice = db/db mice model of type 2 diabetes, chronic treatment; format: in vivo, mouse
Source text: The aim was to determine the activity of IB(s) peptides and all-D retro-inverso IB(s) peptides and variants thereof in the treatment of Diabetes Type 2, particularly to determine the effect of chronic treatment with XG-102 (SEQ ID NO: 233) in the db/db mice model of type 2 diabetes by evaluating fasting blood glucose levels every third day (28 days)
(§1) a) Materials and Methods • i) Animals • A total of twenty (20) male db/db mice (8 weeks old) were obtained from Charles River (Germany). Upon arrival, animals were group housed (n=6-7/group) and offered regular rodent chow (Altromin standard #1324 chow; C. Petersen, Ringsted, Denmark) and water ad libitum unless otherwise stated. • The mice were housed under a 12:12 L/D cycle (lights on at 4:00 and lights off at 16:00) and in temperature and humidity controlled rooms. • ii) Groups and Randomization • On day −4, mice were randomized according to blood glucose level (fasted; blood glucose measured on Biosen S line analyzer (EKF diagnostic, Germany) to participate in one of the following drug treatment groups (n=6): • 1) Vehicle control, S.C. (physiological saline) • 2) XG-102 (SEQ ID NO: 233); 1 mg/kg; s.c. • 3) XG-102 (SEQ ID NO: 233); 10 mg/kg; s.c • All doses listed were calculated for the free-base. Drug purity: 95.28%, peptide content: 78.0%. All compounds were administered sub-cutaneously (s.c.) in a volume of 3 ml/kg. The formulation instructions for vehicle control and XG-102 (SEQ ID NO: 233) were as follows: • First, XG-102 (SEQ ID NO: 233) was dissolved in the vehicle. The formulations (concentrations of 0.33 and 3.3 mg/ml, corresponding to the doses of 1 and 10 mg/kg, respectively) were prepared according to the procedure detailed below. Concentrations were calculated and expressed taking into account test items purity and peptide content (multiplier coefficient was 1.346). • Preparation of a stock solution: the freeze-dried test compound XG-102 (SEQ ID NO: 233) is thawed for one hour minimum and prepared as a stock solution in the vehicle at 1 mM (corresponding to 3.823 mg/mL). Aliquots are prepared for each treatment day and stored at approximately −80° C. Dilutions of this stock solution to the required concentrations are performed on each treatment day; • Storage of the stock solution: at approximately −80° C.; • Storage of the diluted preparations: at room temperature for 24 hours maximum. • Prior to solubilisation, the powder was stored at −20° C. The stability of the stock solution is 3 months at approximately −80° C.; the stability of the diluted formulations for animal dosing is 24 hours at room temperature. Unused diluted material could be stored for up to 7 days if kept at 4-8° C.
c) Experimental Procedure • Following 8 days of acclimatization the mice were treated daily at 08.00 AM for 21 days by SC dosing 8 hours prior to lights out at 04.00 PM according to the outline groups. […] Mice were stratified into two sub-teams of n=6-7 and subsequently the metabolic characterisation were performed on study days 71-72. • iii) Adipokine Panel • Groups 1+3: On three occasions (study days 57, 66 and 108) blood was collected from the tail vein using EDTA coated hematocrite tubes (100 μl). Following centrifugation of blood the plasma was collected and stored at −20° C. until measurement. Then, the following panel of adipokines/cytokines was determined using Luminex based 7-plex: leptin, resistin, MCP-1, PAI-1, TNF, insulin and interleukin-6 (IL-6). • iv) Termination • Groups 1+3 (day 111): The following organs were excised and weighed:
inguinal subcutaneous fat, epididymal fat, retroperitoneal fat, brain, liver, kidney, spleen and heart. All organs described above were samples in 4% PFA for possible future histo-pathological examination. Also, pancreas (en bloc) was sampled for possible stereological and imunohistochemical analysis, and eyes were sampled for possible later analysis of retinopathy. Group 2 (day 28): No tissues or plasma were collected.

[1] = Stability of XG-102 stock solution and diluted formulations; format: physicochemical
Source text: as §1, with “The stability of the stock solution is 3 months at approximately −80° C.; the stability of the diluted formulations for animal dosing is 24 hours at room temperature. Unused diluted material could be stored for up to 7 days if kept at 4-8° C.” left out

dqsrpvqpflnIttprkprpprrrqrrkkrg (DQSRPVQPFLNLTTPRKPRPPRRRQRRKKRG; not fully specified (some residues); printed as dqsrpvqpflnIttprkprpprrrqrrkkrg) [XG-102]
body weight vs vehicle (db/db mice; 1 mg/kg, 28 days of dosing): no effect | fasting blood glucose vs vehicle (db/db mice; 1 mg/kg, 28 days of dosing): no effect | dosing time until blood glucose effect evident (db/db mice; 10 mg/kg): 14 days | fasting blood glucose plateau (db/db mice; 10 mg/kg): approximately 5 mmol/L | fasting blood glucose vs vehicle (db/db mice; 10 mg/kg s.c. daily for 21 days, wash-out to day 111): clear and significant (p<0.001) decrease | tissue weight of brain, spleen and heart (db/db mice; 10 mg/kg, day 111): no significant effects | tissue weight of fat pads at termination (db/db mice; 10 mg/kg, day 111): a significant decrease of epididymal (p<0.05) and retroperitoneal (p<0.01) fat mass | tissue weight of kidney and liver (db/db mice; 10 mg/kg, day 111): a significant decrease of kidney (p<0.05) and liver (p<0.01) mass | body weight vs vehicle (db/db mice; 10 mg/kg, from day 28 to day 111): clear and significant (p<0.001) prevention of body weight increase | general observations: sedation (db/db mice; acute dosing period): no signs of sedation | reaction of subcutaneous tissue at injection site (db/db mice; group B (1 mg/kg s.c. daily)): mild nodular fibrosis was observed | reaction of subcutaneous tissue at injection site (db/db mice; high dose (10 mg/kg s.c. daily), after approximately two weeks): nodular fibrosis was observed in the subcutaneous tissue | stability of the stock solution ([1]; 1 mM in vehicle, approximately −80° C.): 3 months | storage of unused diluted material ([1]; 4-8° C.): up to 7 days | stability of the diluted formulations for animal dosing ([1]; room temperature): 24 h
